# Experimental data as given in US20080020932A1, “Method for Combating Weeds” (Bayer Cropscience AG, priority 2004, published 2008).
# Test system: Apera spica-venti
# Assay: Postemergence field trials in winter wheat: herbicidal activity
# Type: in vivo
# Settings: field trials carried out
# Description: The compound of the formula (I) was tested under field conditions in Winter wheat in Germany and Poland against the economically significant weed Apera spica-venti. The plot trials were instituted on cultivated land used agriculturally, and the conditions of cultivation and climate can be regarded as being representative over the period under investigation. Areas with a particularly high weed population were selected preferentially.
# The active ingredient was applied postemergence (spring) across the area by spraying with a medium droplet size. An appropriate preparation of active ingredient was produced by formulating the active ingredient as a 10 WP (10% w/w water-dispersible powder), mixed with the safener mefenpyr-diethyl as a 15 WG (15% w/w water-dispersible granules) and with alkyl ether sulfates as an additive, and applied with customary amounts of water.
# For the assessment of crop tolerance, instances of plant growth inhibition or lightening of the leaf area were rated in % damage in comparison to the development of the untreated control, 1 to 7 weeks after treatment. The herbicidal activity was assessed at a number of times after treatment, based on the development of weeds, as a % reduction in comparison to the untreated control. For these purposes: • 0%=no damage to crop or no herbicidal action; • 100%=total destruction of the crop or of the weeds, respectively.
structure (smiles),measurement,value
"COC(=O)c1csc(C)c1S(=O)(=O)NC(=O)n1nc(OC)n(C)c1=O [compound of the formula (I), 5-methoxy-4-methyl-2-[(4-methoxycarbonyl-2-methylthien-3-yl)sulfonylaminocarbonyl]-2,4-dihydro-3H-1,2,4-triazol-3-one]",control of the annual varieties of Apera spica-venti in cereals (in words),particularly effective
